These results are taken from patent US20130158112A1, “COMPOSITIONS AND METHODS FOR INHIBITING BETA AMYLOID SECRETION” (priority 2011, published 2013).

Like-named read-outs stand apart in the source and are kept apart here. Bounds are passed on as bounds.

In series [1] the test system is Aβ secretion. Put plainly: PKC inhibitors experiment on Aβ secretion. Format: cell-based, human. Particulars: for effect on basal Aβ secretion: PKC inhibitor alone; for effect of PKC inhibitor on compound 1 inhibited Aβ secretion: inhibitor given 30 min prior to compound 1. As to the method:
(§1) H4βAPP695 wt cells, a human […] cell line stably transfected with a wtβAPP695 expression vector construct under the control of a CMV promoter (kindly provided by Dr. Chris Eckman from Mayo Clinic, Florida) were cultured as previously described. Twenty-four hours before drug treatment, the media was replaced with serum-free media. Cells were then incubated with drugs (dissolved in DMSO) or vehicle for 24 h for collection of conditioned media and cell lysates. For the PKC inhibitors experiment, three inhibitors were treated 30 min prior to drug challenge. Primary cortical neurons were prepared from embryonic day 18 APP and presenilin 1 (APPswe, PSEN1dE9) transgenic mice on the C57BL/6 genetic background (Jackson Laboratories, strain no. 5864) as previously described. THLE-3 human hepatoma cells (from ATCC) were plated in 24-well plates that were precoated with 10 μg/mL bovine serum albumin, 10 μg/mL fibronectin, and 30 μg/mL bovine type I collagen. The cells were grown in BEGM media (Clonetics) until confluent and treated with drugs at 20 μM for 24 h. This conditioned media was harvested, diluted 1:1 in serum-free medium, and incubated with H4βAPP695 wt cells for 24 h prior to analysis of secreted Aβ, which was compared to the effect of 10 μM drug treatments without prior incubation with the THLE-3 cells. Caco-2 cells (ATCC) were plated in 12-well plates with Transwell inserts (Costar) at 70000 cells per well and grown for 21 days. The media volume of the apical and basal chambers was 0.5 and 1.5 mL, respectively. Transepithelial resistance was measured in each well and found to be >160 Ω/cm^2. Drugs at 40 μM and 20 μg/mL of lucifer yellow were added in serum-free medium to the apical chamber. Four hours later, the basal chamber media was harvested and used to measure lucifer yellow fluorescence to confirm monolayer integrity as well as for treatment of H4βAPP695 wt cells for 24 h prior to analysis of secreted Aβ, which was compared to the effect of direct addition of 10 μM of the corresponding drug.
The tumor promoter phorbal myristate acetate is an activator of protein kinase C (PKC) that has been reported to activate α-secretase activity. Thus, we wanted to determine if protein kinase C inhibitors could block the effect of compound 1 on Aβ secretion.

Series [2] relates to Aβ secretion. The series is described as follows: Secreted total Aβ ELISA in conditioned media of H4βAPP695 wt cells. The format is cell-based, human. Particulars: for inhibition at 10 µM / inhibition at 30 µM: Homo sapiens, 24 h, H4βAPP695 wt cells; for inhibition at 10 µM: read-out: Total Aβ (% decrease) 10 μM Mean; for inhibition at 30 µM: read-out: Total Aβ (% decrease) 30 μM Mean; for Aβ secretion inhibiting activity (structure activity summary): in words. In a few lines:
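H4 […] cells stably expressing wild-type βAPP695 (CMV promoter), serum-starved 24 h, then exposed to drug in DMSO or vehicle for 24 h before Aβ in conditioned media was measured. Primary cortical neurons came from E18 APPswe/PSEN1dE9 mice on C57BL/6 background.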

For series [3], the system named is THLE-3 human hepatoma cells. Put plainly: Drug activity persistence after incubation with THLE-3 hepatoma cells. Format: in vitro ADME. Particulars: for inhibition at 10 µM: Homo sapiens, THLE3, 24 h; for % remaining Activity: after 24 h incubation with hepatoma cells. As to the method: as §1
To screen for resistance to metabolism, 1 and eight noncytotoxic analogues with >50% Aβ reducing activity (compounds 27, 29, 48, 52, 53, 65, 73, and 76) were incubated at 20 μM for 24 h with or without THLE-3 human hepatoma cells.

The next series concerns Caco-2 cells. The series is described as follows: Epithelial transcellular transport of drug activity through Caco-2 monolayers. The format is in vitro ADME. Particulars: for % theoretical activity: % of activity passing through Caco-2 monolayer; for inhibition at 10 µM / inhibition at up to 10 µM: Homo sapiens; for inhibition at 10 µM: Caco-2, 10 μM drug alone added directly to H4βAPP695 wt cells, read-out: transcellular transport No total Aβ (% decrease); for inhibition at up to 10 µM: Caco-2, 4 h, lower chamber media after 4 h on Caco-2 monolayer, 10 μM if in equilibrium, read-out: transcellular transport Yes total Aβ (% decrease). As to the method:
as §1
Monolayer integrity was confirmed by high levels of transcellular electrical resistance (>160 ohms/cm^2) and by transcellular impermeability to the fluorescent dye lucifer yellow. […] The concentration of each compound added to the upper chamber would lead to 10 μM in the lower chamber if equilibration was complete, and thus the activity of the lower chamber media was compared to the activity of 10 μM drug added directly to the H4βAPP695 wt cells. […] Compound 1 crossed the monolayer and the bottom chamber media led to a 27% reduction in Aβ production, yielding 38% of the theoretical activity. The compound with the most activity in the lower chamber was compound 48, which decreased Aβ production by 50%, with 71% of its theoretical activity. […] On the basis of the combined activity data from these last two studies, compound 48 was selected as the lead drug for in vivo study.

Series [4] concerns H4βAPP695 wt cells. Put plainly: Cytotoxicity by total cell protein content (BCA) of H4βAPP695 wt cells. Particulars: cytotoxicity.
In series [5] the test system is H4βAPP695 wt cells. Particulars: human, 24 h.
[6] abbreviates: 10 μM on H4 cells, without preincubation with hepatoma cells, read-out: hepatoma incubation No total Aβ (% decrease).
[7] abbreviates: 20 μM preincubated 24 h with THLE-3 hepatoma cells, diluted to 10 μM on H4 cells, read-out: hepatoma incubation Yes total Aβ (% decrease).

On to `CN(C)CCCn1cc(C2=C(c3c[nH]c4ccccc34)C(=O)NC2=O)c2ccccc21` [Bisindolylmaleimide I], for which, in the series on Aβ secretion [1], the “effect on basal Aβ secretion” value is “no effect” and the “effect of PKC inhibitor on compound 1 inhibited Aβ secretion” value (from here on “effect of PKC inhibitor”) is “no effect”.
For the compound `COc1cccc(CSCCNC(=O)c2c(Cl)cccc2Cl)c1` [Compound 27, 2,6-dichloro-N-[2-(3-methoxy-benzylsulfanyl)-ethyl]-benzamide], in the series with Aβ secretion [2], the inhibition at 10 µM was more than 50%, the inhibition at 30 µM turned out to be 73.9% and the “Aβ secretion inhibiting activity (structure activity summary)” value (from here on “Aβ secretion inhibiting activity”) is recorded as “good activity”. The inhibition at 10 µM in series [3] (setting [6]) was determined as 60.6%. Moreover, the inhibition at 10 µM in series [3] (setting [7]) amounted to 22.2%. Further, the “% remaining Activity” value in series [3] was found to be 37%. In the series with Caco-2 cells, the “% theoretical activity” value is given as 29.5%, the inhibition at 10 µM is 60.6% and the inhibition at up to 10 µM stood at 17.9%. In the series with H4βAPP695 wt cells [4], the “Cell protein (% decrease) 10 μM Mean” value is given as 8.4% and the “Cell protein (% decrease) 30 μM Mean” value is 13.2%.
With `O=C(NCCSCc1cccc(O)c1)c1c(Cl)cccc1Cl` [Compound 29, 2,6-dichloro-N-[2-(3-hydroxy-benzylsulfanyl)-ethyl]-benzamide], in the series on Aβ secretion [2], the inhibition at 10 µM is more than 50%, the inhibition at 30 µM was 67.7% and the “Aβ secretion inhibiting activity” value is “good activity”. Besides, the inhibition at 10 µM in series [3] (setting [6]) is 56.4%. Besides, in series [3] (setting [7]), the inhibition at 10 µM was 23.1%. In addition, in series [3], the “% remaining Activity” value turned out to be 41%. Further, in the series on H4βAPP695 wt cells [4], the “Cell protein (% decrease) 10 μM Mean” value is on record as 6.3% and the “Cell protein (% decrease) 30 μM Mean” value is on record as 6.6%.
`COc1cccc(CSCCNC(=O)c2c([N+](=O)[O-])cccc2[N+](=O)[O-])c1` [Compound 37, N-[2-(3-Methoxy-benzylsulfanyl)-ethyl]-2,6-dinitro-benzamide] displayed a melting point of 69 to 71 °C. In addition, in the series with Aβ secretion [2], the inhibition at 10 µM was -14.1%, the inhibition at 30 µM is -2.8% and the “Aβ secretion inhibiting activity” value is on record as “not well tolerated”. In addition, the “Cell protein (% decrease) 10 μM Mean” value with H4βAPP695 wt cells [5] (10 μM) was 3.7%. Moreover, the “Cell protein (% decrease) 30 μM Mean” value in the series with H4βAPP695 wt cells [5] (30 μM) is given as −3.8%.
`COc1cccc(CSCCNC(=O)c2c(Cl)cccc2Cl)c1OC` [Compound 52, 2,6-Dichloro-N-[2-(2,3-dimethoxy-benzylsulfanyl)-ethyl]-benzamide] came in with a melting point of 108 to 110 °C. Moreover, in the series on Aβ secretion [2], the inhibition at 10 µM is more than 50%, the inhibition at 30 µM came out at 72.8% and the “Aβ secretion inhibiting activity” value is reported as “could be tolerated”. Further, in series [3] (setting [6]), the inhibition at 10 µM came out at 57.8%. Moreover, in series [3] (setting [7]), the inhibition at 10 µM was 1.9%. Besides, in the series on Caco-2 cells, the “% theoretical activity” value is listed as 45.9%, the inhibition at 10 µM amounted to 57.8% and the inhibition at up to 10 µM is 26.5%. Moreover, in the series on H4βAPP695 wt cells [4], the “Cell protein (% decrease) 10 μM Mean” value was −0.1% and the “Cell protein (% decrease) 30 μM Mean” value stood at 8.7%.
Compound `O=C(NCCSCc1cccc(I)c1)c1c(Cl)cccc1Cl` [Compound 53, 2,6-Dichloro-N-[2-(3-iodo-benzylsulfanyl)-ethyl]-benzamide] displayed a melting point of 75 to 78 °C. In the series with Aβ secretion [2], the inhibition at 30 µM amounted to 88.3% and the “Aβ secretion inhibiting activity” value was “good activity”. Moreover, in series [3] (20 μM preincubated 24 h with THLE-3 hepatoma cells, diluted to 10 μM on H4 cells), the “hepatoma incubation Yes total Aβ (% decrease)” value is given as 40.0%. The inhibition at 10 µM in series [3] (setting [6]) came out at 84.4%. The inhibition at 10 µM in series [3] (setting [7]) was determined as 40%. The “% remaining Activity” value in series [3] was found to be 47%. In the series with Caco-2 cells, the “% theoretical activity” value came out at 1.3%, the inhibition at 10 µM worked out at 84.4% and the inhibition at up to 10 µM turned out to be 1%. In the series on H4βAPP695 wt cells [4], the “Cell protein (% decrease) 10 μM Mean” value is listed as 9.2% and the “Cell protein (% decrease) 30 μM Mean” value was found to be 19%.
Compound `O=C(NCCSCc1ccccc1)c1c(Cl)cccc1Cl` [Compound 65, N-(2-Benzylsulfanyl-ethyl)-2,6-dichloro-benzamide] yielded a melting point of 96 to 97 °C. For the same compound, in the series with Aβ secretion [2], the inhibition at 10 µM is more than 50%, the inhibition at 30 µM is 58.6% and the “Aβ secretion inhibiting activity” value is “retained activity”. Besides, the inhibition at 10 µM in series [3] (setting [6]) is 51.6%. The inhibition at 10 µM in series [3] (setting [7]) is 27%. In series [3], the “% remaining Activity” value stood at 52%. In the series on Caco-2 cells, the “% theoretical activity” value is listed as 60.1%, the inhibition at 10 µM is 51.6% and the inhibition at up to 10 µM worked out at 31%. In the series with H4βAPP695 wt cells [4], the “Cell protein (% decrease) 10 μM Mean” value is given as −1.1% and the “Cell protein (% decrease) 30 μM Mean” value is −0.7%.
With `COc1cc(Cl)cc(CSCCNC(=O)c2c(Cl)cccc2Cl)c1` [Compound 73, 2,6-Dichloro-N-[2-(3-chloro-5-methoxy-benzylsulfanyl)-ethyl]-benzamide], the melting point lay in the range of 83 to 84 °C. Further, in the series with Aβ secretion [2], the inhibition at 10 µM is more than 50%, the inhibition at 30 µM came out at 81% and the “Aβ secretion inhibiting activity” value is given as “could be tolerated”. In addition, in series [3] (setting [6]), the inhibition at 10 µM is 67.7%. Also, the inhibition at 10 µM in series [3] (setting [7]) worked out at 33.5%. Further, the “% remaining Activity” value in series [3] was found to be 49%. For the same compound, in the series on Caco-2 cells, the “% theoretical activity” value amounted to 4.0%, the inhibition at 10 µM was determined as 67.7% and the inhibition at up to 10 µM stood at 2.7%. Also, in the series on H4βAPP695 wt cells [4], the “Cell protein (% decrease) 10 μM Mean” value was determined as 0.9% and the “Cell protein (% decrease) 30 μM Mean” value turned out to be 0.4%.
Compound `O=C(NCCSCc1ccccc1Cl)c1c(Cl)cccc1Cl` [Compound 76, 2,6-Dichloro-N-[2-(2-chloro-benzylsulfanyl)-ethyl]-benzamide] had a melting point of 110 to 112 °C. Also, in the series on Aβ secretion [2], the inhibition at 30 µM was 80% and the “Aβ secretion inhibiting activity” value is on record as “retained activity”. In series [3] (setting [6]), the inhibition at 10 µM is 75.6%. The inhibition at 10 µM in series [3] (setting [7]) turned out to be 49%. Also, the “% remaining Activity” value in series [3] came to 65%. Besides, in the series on Caco-2 cells, the “% theoretical activity” value is reported as 41.8%, the inhibition at 10 µM turned out to be 75.6% and the inhibition at up to 10 µM stood at 32%. Further, in the series on H4βAPP695 wt cells [4], the “Cell protein (% decrease) 10 μM Mean” value was −0.5% and the “Cell protein (% decrease) 30 μM Mean” value is reported as −11%.
On to `CC(=O)c1c(O)c(C)c(O)c(Cc2c(O)c3c(c(C(=O)/C=C/c4ccccc4)c2O)OC(C)(C)C=C3)c1O` [Rottlerin], for which, in the series on Aβ secretion [1], the “effect on basal Aβ secretion” value is “reduced Aβ secretion” and the “effect of PKC inhibitor” value was “did not significantly alter the effect of compound 1”.
As to Calphostin C, in the series on Aβ secretion [1], the “effect on basal Aβ secretion” value is reported as “no effect” and the “effect of PKC inhibitor” value is reported as “no effect”.
